Data on 49 compounds can be found in ChEMBL document CHEMBL1137511, “Identification of a series of novel derivatives as potent HCV inhibitors by a ligand-based virtual screening optimized procedure” (Bioorg Med Chem, 2007).

Molecules are shown by their SMILES.

Broadly, the IC50 is the concentration needed to halve the response being measured. High values mean a need for much substance, low ones inhibition by little substance.

The nature of this experiment: Inhibition of HCV genotype 1 polymerase. On the set-up: species or system Hepacivirus hominis.
Turning to `O=c1c(C2=NS(=O)(=O)c3ccccc3N2)c(O)c2ccccc2n1NCc1ccccc1`, the IC50 amounted to 5.09 µM. In other words, the single-digit micromolar range.
Compound `CC(C)CCn1c(=O)c(C2=NS(=O)(=O)c3cc(NS(=O)(=O)Nc4cccc(C(=O)NCC(N)=O)c4)ccc3N2)c(O)c2cccnc21` came in with a half-inhibitory concentration (IC50) of 0.043 µM.
With `CC(C)CCn1c(=O)c(C2=NS(=O)(=O)c3cc(NS(N)(=O)=O)ccc3N2)c(O)c2cccnc21`, the midpoint of inhibition, the IC50, lay at 0.009 µM.
In the case of `CC(C)CCn1c(=O)c(C2=NS(=O)(=O)c3cc(NS(=O)(=O)Nc4ccc(C(N)=O)cc4)ccc3N2)c(O)c2cccnc21`, it took 0.018 µM to reach half-maximal inhibition (IC50).
`COCCOC(=O)NS(=O)(=O)Nc1ccc2c(c1)S(=O)(=O)NC(c1c(O)c3cccnc3n(CCC(C)C)c1=O)=N2` displayed an IC50 of 0.087 µM.
Compound `CC(C)CCn1c(=O)c(C2=NS(=O)(=O)c3cc(NS(=O)(=O)NCCC(N)=O)ccc3N2)c(O)c2cccnc21` registered an IC50 of 0.02 µM.
On to `CC(C)CCn1c(=O)c(C2=NS(=O)(=O)c3cc(NS(=O)(=O)N(C)C(=O)OCc4ccccc4)ccc3N2)c(O)c2cccnc21`, for which it took 0.121 µM to reach half-maximal inhibition (IC50).
As for `CC(C)CCn1c(=O)c(C2=NS(=O)(=O)c3cc(NS(=O)(=O)NCCc4ccccc4)ccc3N2)c(O)c2cccnc21`, inhibition was half-maximal at 0.018 µM (IC50).
Compound `C#CCOC(=O)NS(=O)(=O)Nc1ccc2c(c1)S(=O)(=O)N=C(c1c(O)c3cccnc3n(CCC(C)C)c1=O)N2` yielded a concentration for half-maximal inhibition (IC50) of 0.072 µM.
To `CC(C)CCn1c(=O)c(C2=NS(=O)(=O)c3cc(NCC#N)ccc3N2)c(O)c2cccnc21` belongs 0.12 µM.
In turn, `CC(C)CCn1c(=O)c(C2=NS(=O)(=O)c3cc(NS(=O)(=O)NCc4ccccc4)ccc3N2)c(O)c2cccnc21` showed an IC50 of 0.0055 µM.
Regarding `CC(C)CCn1c(=O)c(C2=NS(=O)(=O)c3cc(NS(C)(=O)=O)ccc3N2)c(O)c2cccnc21`, 0.002 µM corresponded to half-maximal inhibition (IC50).
To `C=CCOC(=O)NS(=O)(=O)Nc1ccc2c(c1)S(=O)(=O)N=C(c1c(O)c3cccnc3n(CCC(C)C)c1=O)N2` belongs 0.088 µM.
With `CC(C)CCn1c(=O)c(C2=NS(=O)(=O)c3cc(NS(=O)(=O)NC(=O)OCCCl)ccc3N2)c(O)c2cccnc21`, the IC50 was found to be 0.189 µM.
Take `CC(C)CCn1c(=O)c(C2=NS(=O)(=O)c3cc(NS(=O)(=O)NCCN)ccc3N2)c(O)c2cccnc21`: half-maximal inhibition (IC50) required 0.01 µM.
The compound `CNS(=O)(=O)Nc1ccc2c(c1)S(=O)(=O)NC(c1c(O)c3cccnc3n(CCC(C)C)c1=O)=N2` registered an IC50 of 0.014 µM.
In turn, `CC(C)CCn1c(=O)c(C2=NS(=O)(=O)c3cc(NS(=O)(=O)NC(=O)OCCC#N)ccc3N2)c(O)c2cccnc21` showed an IC50 of 0.035 µM. Against the preceding compound, the IC50 is about 2.5-fold higher.
In turn, `CC(C)CCn1c(=O)c(C2=NS(=O)(=O)c3cc(NS(=O)(=O)NC(=O)OCc4ccccc4)ccc3N2)c(O)c2cccnc21` displayed an IC50 of 0.058 µM.
As for `CC(C)CCn1c(=O)c(C2=NS(=O)(=O)c3cc(NS(=O)(=O)NC4CCNCC4)ccc3N2)c(O)c2cccnc21`, the 50% inhibitory concentration (IC50) was found to be 0.032 µM.
`CC(C)CCn1c(=O)c(C2=NS(=O)(=O)c3cc(NS(=O)(=O)C(C)C)ccc3N2)c(O)c2cccnc21` had an IC50 of 0.008 µM.
Consider `CC(C)CCn1c(=O)c(C2=NS(=O)(=O)c3cc(NS(=O)(=O)c4ccccc4)ccc3N2)c(O)c2cccnc21`, for which the half-maximal inhibitory concentration (IC50) is 0.041 µM. This IC50 lies about 5.1-fold higher than the previous one.
In turn, `CC(C)CCn1c(=O)c(C2=NS(=O)(=O)c3cc(NS(=O)(=O)NCCO)ccc3N2)c(O)c2cccnc21` came in with an IC50 of 0.107 µM.
Compound `CCCCS(=O)(=O)Nc1ccc2c(c1)S(=O)(=O)NC(c1c(O)c3cccnc3n(CCC(C)C)c1=O)=N2` registered an IC50 of 0.022 µM.
Compound `CC(C)CCn1c(=O)c(C2=NS(=O)(=O)c3cc(NS(=O)(=O)NC(=O)OCCN)ccc3N2)c(O)c2cccnc21` gave a 50% inhibitory concentration (IC50) of 0.021 µM.
For `CC(C)CCn1c(=O)c(C2=NS(=O)(=O)c3cc(N)ccc3N2)c(O)c2cccnc21`, the IC50 is 0.31 µM.
On to `CNS(=O)(=O)Nc1ccc2c(c1)S(=O)(=O)N=C(c1c(O)c3cccnc3n(NC3CCC3)c1=O)N2`, for which the midpoint of inhibition, the IC50, lay at 87 µM. Compared with the last compound, the IC50 is about 280-fold higher.
With `CC(C)CCn1c(=O)c(C2=NS(=O)(=O)c3cc(NS(=O)(=O)N4CCC4)ccc3N2)c(O)c2cccnc21` the figure was 0.024 µM; with `COc1cccc(CNS(=O)(=O)Nc2ccc3c(c2)S(=O)(=O)N=C(c2c(O)c4cccnc4n(CCC(C)C)c2=O)N3)c1`, 0.015 µM.
To `COC(=O)c1ccccc1NS(=O)(=O)Nc1ccc2c(c1)S(=O)(=O)N=C(c1c(O)c3cccnc3n(CCC(C)C)c1=O)N2` belongs 0.129 µM; to `CC(C)CCn1c(=O)c(C2=NS(=O)(=O)c3cc(NS(=O)(=O)N4CCCCC4)ccc3N2)c(O)c2cccnc21`, 0.051 µM; to `CC(C)CCn1c(=O)c(C2=NS(=O)(=O)c3cc(NS(=O)(=O)N4CCCC4)ccc3N2)c(O)c2cccnc21`, 0.027 µM.
Regarding `COC(=O)c1ccc(NS(=O)(=O)Nc2ccc3c(c2)S(=O)(=O)N=C(c2c(O)c4cccnc4n(CCC(C)C)c2=O)N3)cc1`, the IC50 turned out to be 0.048 µM. Compared with the last compound, the IC50 is about 1.8-fold higher.
`CNC(=O)c1ccc(NS(=O)(=O)Nc2ccc3c(c2)S(=O)(=O)N=C(c2c(O)c4cccnc4n(CCC(C)C)c2=O)N3)cc1` came in with a half-inhibitory concentration (IC50) of 0.043 µM.
`COC(=O)NS(=O)(=O)Nc1ccc2c(c1)S(=O)(=O)N=C(c1c(O)c3cccnc3n(CCC(C)C)c1=O)N2` returned an IC50 of 0.063 µM.
On to `CC(C)CCn1c(=O)c(C2=NS(=O)(=O)c3cc(NS(=O)(=O)NC(=O)OCC(=O)O)ccc3N2)c(O)c2cccnc21`, for which the IC50 amounted to 0.05 µM.
In turn, `CC(C)CCn1c(=O)c(C2=NS(=O)(=O)c3cc(NS(=O)(=O)Nc4cccc(C(N)=O)c4)ccc3N2)c(O)c2cccnc21` gave an IC50 of 0.043 µM.
For `CC(C)CCn1c(=O)c(C2=NS(=O)(=O)c3cc(NC(=O)C(F)(F)F)ccc3N2)c(O)c2cccnc21`, the midpoint of inhibition, the IC50, lay at 0.906 µM. This IC50 lies about 21-fold higher than the previous one.
With `CC(C)CCn1c(=O)c(C2=NS(=O)(=O)c3cc(NS(=O)(=O)Nc4ccc(C(=O)O)cc4)ccc3N2)c(O)c2cccnc21` the figure was 0.02 µM; with `CC(C)CCn1c(=O)c(C2=NS(=O)(=O)c3cc(NS(=O)(=O)NC4CCCC4)ccc3N2)c(O)c2cccnc21`, 0.039 µM.
On to `CCOC(=O)COC(=O)NS(=O)(=O)Nc1ccc2c(c1)S(=O)(=O)NC(c1c(O)c3cccnc3n(CCC(C)C)c1=O)=N2`, for which the IC50 is 0.061 µM. Compared with the last compound, the IC50 is about 1.6-fold higher.
The compound `CC(C)CCn1c(=O)c(C2=NS(=O)(=O)c3cc(NS(=O)(=O)NC(=O)OCCOCc4ccccc4)ccc3N2)c(O)c2cccnc21` showed a concentration for half-maximal inhibition (IC50) of 0.096 µM. Against the preceding compound, the IC50 is about 1.6-fold higher.
`CC(C)CCn1c(=O)c(C2=NS(=O)(=O)c3cc(NCC(N)=O)ccc3N2)c(O)c2cccnc21` showed an IC50 of 0.47 µM. This IC50 is about 4.9-fold higher than that of the compound before.
The compound `CC(C)CCn1c(=O)c(C2=NS(=O)(=O)c3cc(NS(=O)(=O)Nc4cccc(C(=O)O)c4)ccc3N2)c(O)c2cccnc21` yielded an IC50 of 0.115 µM. This IC50 lies about 4.1-fold lower than the previous one.
Compound `CC(C)CCn1c(=O)c(C2=NS(=O)(=O)c3cc(NS(=O)(=O)Nc4ccccc4)ccc3N2)c(O)c2cccnc21` yielded an IC50 of 0.041 µM.
With `CC(C)CCn1c(=O)c(C2=NS(=O)(=O)c3cc(NS(=O)(=O)NC4CCCCC4)ccc3N2)c(O)c2cccnc21` the figure was 0.067 µM.
With `NS(=O)(=O)Nc1ccc2c(c1)S(=O)(=O)N=C(c1c(O)c3cccnc3n(NC3CCC3)c1=O)N2` the figure was 0.0052 µM; with `COc1ccc(CNS(=O)(=O)Nc2ccc3c(c2)S(=O)(=O)N=C(c2c(O)c4cccnc4n(CCC(C)C)c2=O)N3)cc1`, 0.01 µM; with `COc1ccccc1CNS(=O)(=O)Nc1ccc2c(c1)S(=O)(=O)N=C(c1c(O)c3cccnc3n(CCC(C)C)c1=O)N2`, 0.057 µM.
`CCOC(=O)c1cccc(NS(=O)(=O)Nc2ccc3c(c2)S(=O)(=O)N=C(c2c(O)c4cccnc4n(CCC(C)C)c2=O)N3)c1`: the half-maximal inhibitory concentration (IC50) came to 0.132 µM.
